Reference: patent US10954197B2, “Cathepsin-D and angiogenesis inhibitors and compositions thereof for treating breast cancer” (YOGEE'S BIOINNOVATIONS PRIVATE LIMITED, priority 2017, dated 2021)

| Structure (SMILES) | melting point |
| --- | --- |
| COc1cc(NC(=O)CSc2n[nH]c(CNc3cccc(C)c3)n2)cc(OC)c1 [Example 7, N-(3,5-dimethoxyphenyl)-2-((5-((m-tolylamino)methyl)-1H-1,2,4-triazol-3-yl)thio)acetamide] | 40 to 42 °C |
| Cc1cccc(NCc2nc(SCC(=O)Nc3ccccc3)n[nH]2)c1 [Example 2, N-Phenyl-2-((5-((m-tolylamino)methyl)-1H-1,2,4-triazol-3-yl)thio)acetamide] | 40 to 42 °C |
| COc1cc(NC(=O)CSc2n[nH]c(CNc3ccccc3)n2)cc(OC)c1 [Example 14, N-(3,5-dimethoxyphenyl)-2-((5-((phenylamino)methyl)-1H-1,2,4-triazol-3-yl)thio)acetamide] | 40 to 42 °C |
| COc1ccc(Cl)cc1NC(=O)CSc1n[nH]c(CNc2cccc(C)c2)n1 [Example 1, N-(5-chloro-2-methoxyphenyl)-2-((5-((m-tolylamino)methyl)-1H-1,2,4-triazol-3-yl)thio)acetamide] | 40 to 42 °C |
| COc1ccc(NC(=O)CSc2n[nH]c(CNc3cccc(C)c3)n2)cc1 [Example 5, N-(4-methoxyphenyl)-2-((5-((m-tolylamino)methyl)-1H-1,2,4-triazol-3-yl)thio)acetamide] | 40 to 42 °C |
| Cc1cccc(NCc2nc(SCC(=O)Nc3ccc(Cl)c(Cl)c3)n[nH]2)c1 [Example 6, N-(3,4-dichlorophenyl)-2-((5-((m-tolylamino)methyl)-1H-1,2,4-triazol-3-yl)thio)acetamide] | 40 to 42 °C |
| COc1ccc(NC(=O)CSc2n[nH]c(CNc3ccccc3)n2)cc1 [Example 12, N-(4-methoxyphenyl)-2-((5-((phenylamino)methyl)-1H-1,2,4-triazol-3-yl)thio)acetamide] | 40 to 42 °C |
| O=C(CSc1n[nH]c(CNc2ccccc2)n1)Nc1ccc(Cl)c(Cl)c1 [Example 13, N-(3,4-dichlorophenyl)-2-((5-((phenylamino)methyl)-1H-1,2,4-triazol-3-yl)thio)acetamide] | 40 to 42 °C |
| O=C(CSc1n[nH]c(CNc2ccccc2)n1)Nc1ccccc1 [Example 9, N-phenyl-2-((5-((phenylamino)methyl)-1H-1,2,4-triazol-3-yl)thio)acetamide] | 40 to 42 °C |
| Cc1cccc(NCc2nc(SCC(=O)Nc3cc(C(F)(F)F)ccc3Cl)n[nH]2)c1 [Example 8, N-(2-chloro-5-(trifluoromethyl)phenyl)-2-((5-((m-tolylamino)methyl)-1H-1,2,4-triazol-3-yl)thio)acetamide] | 40 to 42 °C |
| Cc1cccc(NCc2nc(SCC(=O)Nc3cccc(F)c3)n[nH]2)c1 [Example 3, N-(3-fluorophenyl)-2-((5-((m-tolylamino)methyl)-1H-1,2,4-triazol-3-yl)thio)acetamide] | 40 to 42 °C |

More lines, now with the values ahead:

| melting point | Structure (SMILES) |
| --- | --- |
| 40 to 42 °C | Cc1cc([N+](=O)[O-])ccc1NC(=O)CSc1n[nH]c(NC(=O)NCc2ccccc2)n1 [Example 21, 2-((5-(3-benzylureido)-1H-1,2,4-triazol-3-yl)thio)-N-(2-methyl-4-nitrophenyl)acetamide] |
| 40 to 42 °C | CC(=O)c1cccc(NC(=O)CSc2n[nH]c(NC(=S)NCc3ccccc3)n2)c1 [Example 18, N-(3-acetylphenyl)-2-((5-(3-benzylthioureido)-1H-1,2,4-triazol-3-yl)thio)acetamide] |
| 40 to 42 °C | O=C(CSc1n[nH]c(CNc2ccccc2)n1)Nc1cccc(F)c1 [Example 10, N-(3-fluorophenyl)-2-((5-((phenylamino)methyl)-1H-1,2,4-triazol-3-yl)thio)acetamide] |
| 40 to 42 °C | O=C(CSc1n[nH]c(NC(=O)NCc2ccccc2)n1)Nc1ccc([N+](=O)[O-])cc1 [Example 19, 2-((5-(3-benzylureido)-1H-1,2,4-triazol-3-yl)thio)-N-(4-nitrophenyl)acetamide] |
| 40 to 42 °C | CC(=O)c1cccc(NC(=O)CSc2n[nH]c(NC(=O)NCc3ccccc3)n2)c1 [Example 20, N-(3-acetylphenyl)-2-((5-(3-benzylureido)-1H-1,2,4-triazol-3-yl)thio)acetamide] |
| 40 to 42 °C | O=C(CSc1n[nH]c(CNc2ccccc2)n1)Nc1cccc(Br)c1 [Example 11, N-(3-bromophenyl)-2-((5-((phenylamino)methyl)-1H-1,2,4-triazol-3-yl)thio)acetamide] |
